From patent US9562033B2, “Inhibitors of viral replication, their process of preparation and their therapeutical uses” (LABORATOIRE BIODIM, priority 2012, dated 2017) come the findings set out here.

In this assay the test system is NL4-3 strain of HIV-1. Description: HIV-1 replication inhibition: cyto-protection of MT4 cells infected with NL4-3 virus (CellTiter-Glo viability assay). The class given is cell-based. As to conditions: Human immunodeficiency virus 1, NL43, 120 h, concentration leading to 50% of cyto-protection, 5 days incubation. As to the method:
The antiviral activity, particularly against HIV, of compounds according to the invention is evaluated by the protocol described below.
Preparation of Virus Stock of the NL4-3 Strain of HIV-1
The virus was prepared as described in Lopez et al (Lopez et al, Proc Natl Acad Sci USA., 2006, 103(40):14947-52, by transfecting 2×10^6 293 T cells (CRL-1573, ATCC) with following modifications: 6 μg of NL4-3 proviral DNA molecular clone were mixed with Fugene 6 transfection reagent from Roche, and used according to manufacturer's instructions. Forty eight hours later, transfected cell supernatants were harvested, filtered through 0.45-μm-pore-size filters, quantified for HIV-1 p24 antigen by using a Innotest HIV antigen mAb assay (Ingen) according to manufacturer's instructions, and used in infection experiments.
Preparation of Compounds:
Serial dilutions of compounds to be tested were prepared in complete RPMI medium from 10 mM DMSO stock solutions, and distributed in a volume of 20 µl in 96 well Falcon 353072 Microtest™ tissue culture plate, in order to get 0.5% DMSO final concentration in each well, after the addition of infected cells. Control wells contained also 0.5% DMSO final concentration but no compound.
MT4 cells (from the NIH AIDS Research and Reference Reagent Program) in RPMI complete medium were counted (10×10^6 cells per well in Falcon 353047 Multiwell™ 24 well) and infected for 2 hours at 37°, at a multiplicity of infection (moi) of 0.0001-0.00001. Cells were then centrifuged 3 min at 3000 rpm, and washed two times in 1 ml PBS to remove viruses that have not entered in cells. Infected cells were resuspended in complete RPMI at 1.25×10^6 cells/ml, and 80 µl of infected cells were distributed in each well containing compounds to be tested or control wells. The plates were then incubated at 37° for 5 days.
Assay Used to Measure the Inhibition of HIV Replication by the Compounds
(according to Gregg S. Jones et al., Antimicrobial Agents and Chemotherapy, 2009, 53 (3): 1194-1203).
After 5 days of incubation, […] of CellTiter-Glo reagent (Promega Biosciences, Inc., Madison Wis., USA) were added to each well. Cell lysis was carried out at room temperature during 10 min, 150 μl of lysates were transferred in Packard Optiplate 96 well, and luminescence was read on a Fluoroskan (Thermo Scientific).

As to `Cc1sc(-c2cnn(C)c2)c(C2=CCC(C(C)C)CC2)c1C(OC(C)(C)C)C(=O)O` (stereo not drawn) [Example 26, 2-(tert-butoxy)-2-{2-methyl-4-[4-(propan-2-yl)cyclohex-1-en-1-yl]-5-(N-methylpyrazol-4-yl)thiophen-3-yl}acetic acid], the EC50 is 830 nM.

With `CC(C)(C)OC(C(=O)O)c1c(CO)sc(-c2ccncc2)c1-c1ccc2c(c1)CCCO2` (stereo not drawn) [Example 38, 2-(tert-butoxy)-2-[4-(3,4-dihydro-2H-1-benzopyran-6-yl)-2-(hydroxymethyl)-5-(pyridin-4-yl)thiophen-3-yl]acetic acid], the EC50 was 2300 nM.

The compound `Cc1csnc1-c1sc(C)c(C(OC(C)(C)C)C(=O)O)c1C1=CCC(C)(C)CC1` (stereo not drawn) [Example 89, 2-(tert-butoxy)-2-{2-methyl-4-[4,4-dimethylcyclohex-1-en-1-yl]-5-(4-methylisothiazol-3-yl)thiophen-3-yl}acetic acid] had an EC50 of 860 nM.

For `Cc1sc(-c2ccc(F)cc2)c(-c2ccc3c(c2)CCCO3)c1C(OC(C)(C)C)C(=O)O` (stereo not drawn) [Example 2, 2-(tert-butoxy)-2-[4-(3,4-dihydro-2H-1-benzopyran-6-yl)-5-(4-fluorophenyl)-2-methylthiophen-3-yl]acetic acid], the EC50 was 190 nM.

The compound `Cc1sc(-c2ccnc(OCc3ccccc3)c2)c(-c2ccc3c(c2)CCCO3)c1C(OC(C)(C)C)C(=O)O` (stereo not drawn) [Example 17, 2-{5-[2-(benzyloxy)pyridin-4-yl]-4-(3,4-dihydro-2H-1-benzopyran-6-yl)-2-methylthiophen-3-yl}-2-(tert-butoxy)acetic acid] returned an EC50 of 650 nM.

For `Cc1sc(-c2ccncc2)c(-c2ccc3c4c(ccnc24)CCO3)c1C(OC(C)(C)C)C(=O)O` (stereo not drawn) [Example 74, 2-(tert-butoxy)-2-(2-methyl-4-(2,3-dihydropyrano[4,3,2-de]quinolin-7-yl)-5-(pyridin-4-yl)thiophen-3-yl)acetic acid], a half-maximal effect (EC50) was put at 6800 nM.

In turn, `Cc1sc(-c2cscn2)c(C2=CCC(C)(C)CC2)c1C(OC(C)(C)C)C(=O)O` (stereo not drawn) [Example 54, 2-(tert-butoxy)-2-{2-methyl-4-[4,4-dimethylcyclohex-1-en-1-yl]-5-(thiazol-4-yl)thiophen-3-yl}acetic acid] had an EC50 of 470 nM.

Take `Cc1sc(-c2cncnc2)c(-c2ccc3c(c2)CCCO3)c1C(OC(C)(C)C)C(=O)O` (stereo not drawn) [Example 18, 2-(tert-butoxy)-2-[4-(3,4-dihydro-2H-1-benzopyran-6-yl)-2-methyl-5-(pyrimidin-5-yl)thiophen-3-yl]acetic acid]: the midpoint of the response, the EC50, lay at 260 nM.

In turn, `CCCNC(=O)c1ccc(-c2sc(C)c(C(OC(C)(C)C)C(=O)O)c2C2=CCC(C)(C)CC2)cc1` (stereo not drawn) [Example 36, 2-(tert-butoxy)-2-[4-(4,4-dimethylcyclohex-1-en-1-yl)-2-methyl-5-[4-(propylcarbamoyl)phenyl]thiophen-3-yl]acetic acid] gave an EC50 of 100 nM.

`Cc1sc(-c2ccncc2)c(C2=CCC(F)(F)CC2)c1C(OC(C)(C)C)C(=O)O` (stereo not drawn) [Example 28, 2-(tert-butoxy)-2-[2-methyl-4-(4,4-difluorocyclohex-1-en-1-yl)-5-(pyridin-4-yl)thiophen-3-yl]acetic acid] came in with a concentration giving a half-maximal response (EC50) of 750 nM.

As for `Cc1sc(-c2ccncc2)c(C2=CCC(C)CC2)c1C(OC(C)(C)C)C(=O)O` (stereo not drawn) [Example 10, 2-(tert-butoxy)-2-[2-methyl-4-(4-methylcyclohex-1-en-1-yl)-5-(pyridin-4-yl)thiophen-3-yl]acetic acid], it took 140 nM to reach a half-maximal effect (EC50).

On to `Cc1sc(-c2ccc(S(N)(=O)=O)cc2)c(C2=CCC(C)(C)CC2)c1C(OC(C)(C)C)C(=O)O` (stereo not drawn) [Example 32, 2-(tert-butoxy)-2-[4-(4,4-dimethylcyclohex-1-en-1-yl)-2-methyl-5-(benzenesulfonamide-4-yl)thiophen-3-yl]acetic acid], for which the response was half-maximal at 430 nM (EC50).

On to `Cc1sc(-c2cnn(C)c2)c(-c2ccc3c(c2)CCCO3)c1C(OC(C)(C)C)C(=O)O` (stereo not drawn) [Example 88, 2-(tert-butoxy)-2-[4-(3,4-dihydro-2H-1-benzopyran-6-yl)-2-methyl-5-(1-methyl-1H-pyrazol-4-yl)thiophen-3-yl]acetic acid], for which the midpoint of the response, the EC50, lay at 1600 nM.

The compound `Cc1sc(-c2ccsc2)c(-c2ccc3c(c2)CCCO3)c1C(OC(C)(C)C)C(=O)O` (stereo not drawn) [Example 20, 2-(tert-butoxy)-2-[4-(3,4-dihydro-2H-1-benzopyran-6-yl)-2-methyl-5-(thiophen-3-yl)thiophen-3-yl]acetic acid] yielded an EC50 of 220 nM.

Turning to `CC(=O)Nc1ccc(-c2sc(C)c(C(OC(C)(C)C)C(=O)O)c2C2=CCC(C)(C)CC2)cc1` (stereo not drawn) [Example 33, 2-(tert-butoxy)-2-[4-(4,4-dimethylcyclohex-1-en-1-yl)-2-methyl-5-(acetamidophen-4-yl)thiophen-3-yl]acetic acid], the EC50 is 230 nM.

As to `Cc1sc(-c2ccncc2)c(-c2ccc3c(c2)CCCO3)c1C(OC(C)(C)C)C(=O)O` (stereo not drawn) [Example 3, 2-(tert-butoxy)-2-[4-(3,4-dihydro-2H-1-benzopyran-6-yl)-2-methyl-5-(pyridin-4-yl)thiophen-3-yl]acetic acid], the half-maximal effective concentration (EC50) was 100 nM.

The compound `Cc1sc(-c2ccc(S(=O)(=O)N(C)C)cc2)c(C2=CCC(C)(C)CC2)c1C(OC(C)(C)C)C(=O)O` (stereo not drawn) [Example 77, 2-(tert-butoxy)-2-[4-(4,4-dimethylcyclohex-1-en-1-yl)-5-[4-(dimethylsulfamoyl)phenyl]-2-methylthiophen-3-yl]acetic acid] returned an EC50 of 4400 nM.

The compound `CNC(=O)c1ccc(-c2sc(C)c(C(OC(C)(C)C)C(=O)O)c2C2=CCC(C)(C)CC2)cc1` (stereo not drawn) [Example 29, 2-(tert-butoxy)-2-[4-(4,4-dimethylcyclohex-1-en-1-yl)-2-methyl-5-(N-methyl-4-aminocarbonylphenyl)thiophen-3-yl]acetic acid] showed an EC50 of 90 nM.

The compound `Cc1sc(-c2ccc(=O)n(C)c2)c(-c2ccc3c(c2)CCCO3)c1C(OC(C)(C)C)C(=O)O` (stereo not drawn) [Example 19, 2-(tert-butoxy)-2-[4-(3,4-dihydro-2H-1-benzopyran-6-yl)-2-methyl-5-(1-methyl-6-oxo-1,6-dihydropyridin-3-yl)thiophen-3-yl]acetic acid] yielded an EC50 of 430 nM.

`CCCc1ccc(-c2sc(C)c(C(OC(C)(C)C)C(=O)O)c2C2=CCC(C)(C)CC2)nc1` (stereo not drawn) [Example 52, 2-(tert-butoxy)-2-{2-methyl-4-[4,4-dimethylcyclohex-1-en-1-yl]-5-(5-(n-propyl)pyridin-2-yl)thiophen-3-yl}acetic acid] came in with an EC50 of 930 nM.

`Cc1sc(-c2ccncc2)c(C2=CCC(C(C)C)CC2)c1C(OC(C)(C)C)C(=O)O` (stereo not drawn) [Example 6, 2-(tert-butoxy)-2-{2-methyl-4-[4-(propan-2-yl)cyclohex-1-en-1-yl]-5-(pyridin-4-yl)thiophen-3-yl}acetic acid]: the EC50 worked out at 160 nM.

The compound `Cc1sc(-c2ccccc2)c(C2=CCC(C)(C)c3cccnc32)c1C(OC(C)(C)C)C(=O)O` (stereo not drawn) [Example 67, 2-(tert-butoxy)-2-[4-(5,5-dimethyl-5,6-dihydroquinolin-8-yl)-2-methyl-5-phenylthiophen-3-yl]acetic acid] returned an EC50 of 2300 nM.

For the compound `CCCc1ccnc(-c2sc(C)c(C(OC(C)(C)C)C(=O)O)c2C2=CCC(C)(C)CC2)c1` (stereo not drawn) [Example 71, 2-(tert-butoxy)-2-{2-methyl-4-[4,4-dimethylcyclohex-1-en-1-yl]-5-(4-(n-propyl)pyridin-2-yl)thiophen-3-yl}acetic acid], the midpoint of the response, the EC50, lay at 1100 nM.

Compound `CNC(=O)c1cccc(-c2sc(C)c(C(OC(C)(C)C)C(=O)O)c2C2=CCC(C)(C)CC2)c1` (stereo not drawn) [Example 41, 2-(tert-butoxy)-2-[4-(4,4-dimethylcyclohex-1-en-1-yl)-2-methyl-5-(methylaminocarbonylphen-3-yl)thiophen-3-yl]acetic acid] showed an EC50 of 50 nM.

`Cc1sc(-c2ccoc2)c(-c2ccc3c(c2)CCCO3)c1C(OC(C)(C)C)C(=O)O` (stereo not drawn) [Example 16, 2-(tert-butoxy)-2-[4-(3,4-dihydro-2H-1-benzopyran-6-yl)-5-(furan-3-yl)-2-methylthiophen-3-yl]acetic acid] displayed an EC50 of 820 nM.

Consider `Cc1sc(C2=CCOCC2)c(-c2ccc3c(c2)CCCO3)c1C(OC(C)(C)C)C(=O)O` (stereo not drawn) [Example 78, 2-(tert-butoxy)-2-[4-(3,4-dihydro-2H-1-benzopyran-6-yl)-5-(3,6-dihydro-2H-pyran-4-yl)-2-methylthiophen-3-yl]acetic acid], for which the midpoint of the response, the EC50, lay at 4300 nM.

Consider `Cc1sc(-c2ccncc2)c(C2=CCC(C)(CF)CC2)c1C(OC(C)(C)C)C(=O)O` (stereo not drawn) [Example 53, [4-(4-fluoromethyl-4-methylcyclohex-1-enyl)-2-methyl-5-pyridin-4-yl-thiophen-3-yl]-tert-butoxy-acetic acid], for which a half-maximal effect (EC50) was put at 70 nM.

One may read the EC50 as the midpoint of the concentration-response curve. The low end stands for a more potent agent, the high end for a less potent agent.
